For one data set, the target named is T1, human aromatase (Homo sapiens, UniProt P11511).
T1 construct: purchased BioVision, Milpitas, CA, USA
T1 sequence (P11511 1-503): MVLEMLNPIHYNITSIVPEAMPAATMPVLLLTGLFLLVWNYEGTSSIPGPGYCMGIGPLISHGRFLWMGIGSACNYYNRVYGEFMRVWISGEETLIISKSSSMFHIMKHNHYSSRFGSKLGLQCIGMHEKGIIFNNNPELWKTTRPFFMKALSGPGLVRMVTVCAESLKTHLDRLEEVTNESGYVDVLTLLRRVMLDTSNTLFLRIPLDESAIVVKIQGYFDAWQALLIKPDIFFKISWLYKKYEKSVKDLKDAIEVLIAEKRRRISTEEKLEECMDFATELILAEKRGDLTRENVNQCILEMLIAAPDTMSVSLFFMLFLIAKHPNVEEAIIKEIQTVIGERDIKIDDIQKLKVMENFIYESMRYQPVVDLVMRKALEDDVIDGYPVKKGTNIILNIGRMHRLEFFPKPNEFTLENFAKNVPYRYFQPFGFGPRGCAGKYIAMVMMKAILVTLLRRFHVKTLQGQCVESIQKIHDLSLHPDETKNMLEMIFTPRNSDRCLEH
The data set is described as follows: Aromatase inhibition, fluorimetric assay kit (Aromatase-CYP19A Inhibitor Screening kit, BioVision). Type of data set: biochemical. The note with it: for Aromatase inhibition (in words): screening at 1 µM. On the procedure: The activity was measured each minute for 60 min and the value obtained for each compound after 10 min was chosen to calculate the percentage of the aromatase inhibition.
The aromatase inhibitory activity was determined using a commercial fluorimetric assay kit (Aromatase-CYP19A Inhibitor Screening kit, BioVision, Milpitas, CA, USA), as reported elsewhere. The assay utilizes a fluorogenic aromatase substrate that is converted into a highly fluorescent metabolite detected in the visible range (Ex/Em 488/527 nm). […] During the incubation, the Aromatase Substrate/NADP+ mixture was prepared, and the reaction was started by adding 30 µL of this solution to each well (aside from the background control), reaching a final reaction volume of 100 µL/well. The fluorescence emission (527 nm) was measured immediately (within 1 min) by means of a fluorometer equipped with a 488 nm filter (GloMax®-Multi Detection System, Promega, Madison, WI, USA) and afterwards monitored for 60 min. […] The assay was performed in the same experimental conditions used for the initial screening of compounds. Dose–response curves were fitted with GraphPad Prism 5.0 (GraphPad Software, San Diego, CA, USA).

Data set [1] deals with MCF7 breast cancer cell line. The data set is described as follows: Cell metabolic activity / viability (MTT assay) on MCF7.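 As to all read-outs here: MTT optical density read-out in human MCF7 cells, normalised to DMSO vehicle-treated cells as 100%, with IC50 derived from fitted concentration–response curves.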 The settings on record: for IC50: Homo sapiens, MTT, tested 0 to 500 µM. The data set is classed as cell-based, human. Background: Formazan colour is commonly taken as a measure of viable cells.
Experimental: Human skin fibroblasts (HFF-1, CVCL_3285) and human breast cancer MCF7 (HTB-22™, CVCL_0031) were purchased from ATCC and maintained in Dulbecco’s modified Eagle’s medium (DMEM) high glucose (EuroClone, Milan, Italy) supplemented with 10% of fetal bovine serum (FBS) and 1% of penicillin/streptomycin (Gibco—Thermo Fisher Scientific, MD, USA).
Cell metabolic activity of HFF-1 and MCF7 cells was assessed by MTT (3-(4,5-Dimethylthiazol-2-yl)-2,5-Diphenyltetrazolium Bromide) test (Sigma Aldrich, Milan, Italy). […] After the established exposure times, cells were incubated with MTT (0.5 mg/mL) and the optical density was measured as reported elsewhere [63]. Results were expressed as the percentage of cells in the presence of vehicle (DMSO) set as 100% and each experiment was performed in triplicate (n = 3). Concentration–response curves and IC50 were fitted and calculated with GraphPad Prism 5.0 (GraphPad Software, San Diego, CA, USA).
A further data set concerns MCF7 cells. The data set is described as follows: Cytotoxicity test (lactate dehydrogenase release). The data set is classed as cell-based, human. The settings on record: MCF7, 0–250 µM, 24 h. On the procedure:
To assess whether the decrease in metabolic activity is a consequence of cytotoxic occurrence in the presence of compounds 1b, 1c, and 1j, lactate dehydrogenase (LDH) released from MCF7 was measured in response to loading concentrations of 0–250 µM after a 24 h exposure. […] It is, therefore, plausible to assume that all tested compounds exert their anti-proliferative effect on MCF7 cells through cytotoxic induction and 1c is the most promising compound, being active already at lower doses.
MCF7 cells were seeded and stimulated as previously described for the MTT test. After the exposure time, cell supernatants were collected, centrifuged at 450× g for 4 min, and stored on ice. In order to quantify the cytotoxicity of loading concentrations of compounds 1b, 1c, and 1j (0–250 µM), the CytoTox 96® Non-Radioactive Cytotoxicity Assay (Promega Corporation, Madison, WI, USA) was performed as previously reported. The results were normalized on MTT absorbances and expressed as fold increases on the LDH released by cultures in the presence of vehicle (DMSO) set as 1.

[2] abbreviates: MCF7, 24 h, 24 h, read-out: MCF7 Cells IC50 24 h.
[3] abbreviates: MCF7, 72 h, 72 h, read-out: MCF7 Cells IC50 72 h.

SMILES strings stand for the structures. Like-named read-outs stand apart in the source and are kept apart here. Where only a bound is given, the exact number is not on record here.

For `O=S(=O)(Oc1ccc(/C=C/c2ccccc2)cc1)c1ccccc1` [1a, 4-[(E)-2-Phenylvinyl]phenylbenzenesulfonate], the melting point (commonly the temperature of the solid-liquid transition) lay within 127 to 130 °C. The “Aromatase inhibition (in words)” value at human aromatase is “very low activity”.

Compound `O=[N+]([O-])c1cccc(S(=O)(=O)Oc2ccc(/C=C/c3ccccc3)cc2)c1` [1b, 4-[(E)-2-Phenylvinyl]phenyl 3-nitrobenzenesulfonate] yielded a melting point of 152 to 155 °C. Moreover, testing at 1 µM at human aromatase gave an inhibition of 97%. Besides, the IC50 (in general, the concentration that gives 50% inhibition) at human aromatase (tested at concentrations from 0.01 to 100 μM, mean of triplicate determinations) was determined as 2.51 µM. The IC50 in data set [1] (setting [2]) stood at 159 ± 9.9 µM. For the same compound, the 50% inhibitory concentration (IC50) in data set [1] (setting [3]) came out at 240 ± 6.7 µM. Also, in data set [1] (MCF7, 10 µM, 24 h), the “Viability (% of control) - 24 h” value is recorded as 69.32 ± 14.99 % of control. For the same compound, the “Viability (% of control) - 72 h” value in data set [1] (MCF7, 10 µM, 72 h) is 98.33 ± 5.24 % of control. Besides, in data set [1] (MCF7, 25 µM, 24 h), the “Viability (% of control) - 24 h” value is given as 79.12 ± 9.66 % of control. Besides, in data set [1] (MCF7, 25 µM, 72 h), the “Viability (% of control) - 72 h” value was 99.99 ± 9.30 % of control. The “Viability (% of control) - 24 h” value in data set [1] (MCF7, 50 µM, 24 h) is given as 80.69 ± 4.08 % of control. Besides, in data set [1] (MCF7, 50 µM, 72 h), the “Viability (% of control) - 72 h” value is given as 93.39 ± 5.39 % of control. In data set [1] (MCF7, 100 µM, 24 h), the “Viability (% of control) - 24 h” value is 73.93 ± 1.87 % of control. The “Viability (% of control) - 72 h” value in data set [1] (MCF7, 100 µM, 72 h) is reported as 77.31 ± 7.02 % of control. Also, in data set [1] (MCF7, 250 µM, 24 h), the “Viability (% of control) - 24 h” value is reported as 45.57 ± 3.42 % of control. Further, the “Viability (% of control) - 72 h” value in data set [1] (MCF7, 250 µM, 72 h) is listed as 57.01 ± 1.01 % of control. In addition, the “Viability (% of control) - 24 h” value in data set [1] (MCF7, 500 µM, 24 h) was 35.83 ± 2.22 % of control. In addition, the “Viability (% of control) - 72 h” value in data set [1] (MCF7, 500 µM, 72 h) is recorded as 36.11 ± 0.35 % of control. Also, the “LDH release, dose dependence (in words)” value with MCF7 cells is “raises only at the highest concentration administered (250 µM)”.

Regarding `N#Cc1ccc(S(=O)(=O)Oc2ccc(/C=C/c3ccccc3)cc2)cc1` [1e, 4-[(E)-2-Phenylvinyl]phenyl 4-cyanobenzenesulfonate], at human aromatase, the inhibition (in general, the percentage by which the read-out fell short of the control) at 1 µM is 56.1%.

As for `COc1ccc(S(=O)(=O)Oc2ccc(/C=C/c3ccccc3)cc2)c(OC)c1` [1g, 4-[(E)-2-Phenylvinyl]phenyl 2,4-dimethoxybenzenesulfonate], the melting point lay within 141 to 142 °C.

`CCS(=O)(=O)Oc1ccc(/C=C/c2ccccc2)cc1` [1i, 4-[(E)-2-Phenylvinyl]phenyl ethanesulfonate] had a melting point of 112 to 114 °C. On human aromatase, this compound returned an inhibition at 1 µM of 100%.

As to `O=S(=O)(Oc1ccc(/C=C/c2ccccc2)cc1)c1ccc(Cl)s1` [1k, 4-[(E)-2-Phenylvinyl]phenyl 5-chlorothiophene-2-sulfonate], the melting point lay within 160 to 162 °C. The compound also returned an inhibition at 1 µM against human aromatase of 60.3%.

As for `O=S(=O)(Nc1ccc(/C=C/c2ccccc2)cc1)c1ccccc1` [2a, N-{4-[(E)-2-Phenylvinyl]phenyl}benzenesulfonamide], the melting point was in the range of 160 to 162 °C. Also, at human aromatase, the inhibition at 1 µM stood at 47.8%.

For the compound `O=[N+]([O-])c1cccc(S(=O)(=O)Nc2ccc(/C=C/c3ccccc3)cc2)c1` [2b, 3-Nitro-N-{4-[(E)-2-phenylvinyl]phenyl}benzenesulfonamide], the melting point was in the range of 210 to 211 °C. At 1 µM the inhibition against human aromatase was 67.3%.

`Cc1ccc(S(=O)(=O)Nc2ccc(/C=C/c3ccccc3)cc2)cc1[N+](=O)[O-]` [2c, 4-Methyl-3-nitro-N-{4-[(E)-2-phenylvinyl]phenyl}benzenesulfonamide] came in with a melting point of 246 to 247 °C. At human aromatase, this compound returned an inhibition at 1 µM of 44.8%.

In turn, `Cc1ccc(S(=O)(=O)Nc2ccc(/C=C/c3ccccc3)cc2)cc1` [2d, 4-Methyl-N-{4-[(E)-2-phenylvinyl]phenyl}benzenesulfonamide] yielded a melting point of 182 to 183 °C.

For the compound `N#Cc1ccc(S(=O)(=O)Nc2ccc(/C=C/c3ccccc3)cc2)cc1` [2e, 4-Cyano-N-{4-[(E)-2-phenylvinyl]phenyl}benzenesulfonamide], the melting point was 238 to 239 °C.

`CC(=O)Nc1ccc(S(=O)(=O)Nc2ccc(/C=C/c3ccccc3)cc2)cc1` [2f, N-{4-[({4-[(E)-2-Phenylvinyl]phenyl}amino)sulfonyl]phenyl}acetamide] had a melting point of 230 to 231 °C.

With `COc1ccc(S(=O)(=O)Nc2ccc(/C=C/c3ccccc3)cc2)c(OC)c1` [2g, 2,4-Dimethoxy-N-{4-[(E)-2-phenylvinyl]phenyl}benzenesulfonamide], the melting point lay in the range of 213 to 215 °C.

Consider `CS(=O)(=O)Nc1ccc(/C=C/c2ccccc2)cc1` [2h, N-{4-[(E)-2-Phenylvinyl]phenyl}methanesulfonamide], for which the melting point was in the range of 250 to 251 °C.

The compound `CCS(=O)(=O)Nc1ccc(/C=C/c2ccccc2)cc1` [2i, N-{4-[(E)-2-Phenylvinyl]phenyl}ethanesulfonamide] had a melting point of 230 to 231 °C.

For the compound `O=S(=O)(Nc1ccc(/C=C/c2ccccc2)cc1)c1ccc(Cl)s1` [2k, 5-Chloro-N-{4-[(E)-2-phenylvinyl]phenyl}thiophene-2-sulfonamide], the melting point was 200 to 202 °C. Also, at human aromatase, the “Aromatase inhibition (in words)” value was “inactive”.

Consider `Oc1ccc(/C=C/c2cc(O)cc(O)c2)cc1` [RSV, trans-3,4′,5-trihydroxystilbene, reference compound], for which the IC50 was greater than 250 µM in data set [1] (setting [2]) and 83 ± 3.8 µM in data set [1] (setting [3]). Also, the “Viability (% of control) - 24 h” value in data set [1] (MCF7, 10 µM, 24 h) is recorded as 80.27 ± 3.18 % of control; in data set [1] (MCF7, 25 µM, 24 h) it was 84.94 ± 6.59 % of control; in data set [1] (MCF7, 50 µM, 24 h), 87.44 ± 1.93 % of control; in data set [1] (MCF7, 100 µM, 24 h) it was 78.29 ± 4.03 % of control; in data set [1] (MCF7, 250 µM, 24 h), 60.29 ± 0.93 % of control; in data set [1] (MCF7, 500 µM, 24 h), 34.30 ± 5.01 % of control. Further, the “Viability (% of control) - 72 h” value is 91.92 ± 5.44 % of control in data set [1] (MCF7, 10 µM, 72 h); 73.93 ± 9.52 % of control in data set [1] (MCF7, 25 µM, 72 h); 66.54 ± 5.77 % of control in data set [1] (MCF7, 50 µM, 72 h); 47.75 ± 2.67 % of control in data set [1] (MCF7, 100 µM, 72 h); 38.05 ± 8.70 % of control in data set [1] (MCF7, 250 µM, 72 h); 15.33 ± 4.88 % of control in data set [1] (MCF7, 500 µM, 72 h). For the same compound, the Metabolically active cells in data set [1] (MCF7, 50 µM, 24 h, DMSO alone = 100%) is on record as “slightly active at this concentration”.

The record behind these values is article PMC8537897, “Design, Synthesis and Biological Evaluation of Aromatase Inhibitors Based on Sulfonates and Sulfonamides of Resveratrol” (Pharmaceuticals, 2021).
